Measured values from publication PMC7269033, “A composite nanocarrier to inhibit precipitation of the weakly basic drug in the gastrointestinal tract” (Drug Delivery, 2020).
Values after ≈ are worked out from the molar mass of the structure shown. Read-outs that look alike come from different tables or passages of the source.

Assays:
[1] = Cellular transport studies (Papp, efflux ratio); format: in vitro ADME; conditions: human
Experimental: The Caco-2 cell monolayer is the most widespread model for cellular transport experiments to evaluate the efflux effect of P-gp (Hunter et al., [1993]). The transepithelial electrical resistance (TEER) value of Caco-2 cell monolayer model was measured using a cell resistance meter (Millicell-ERS, Millipore, USA), and models were used for transport experiments when the TEER value exceeded […] (Andrew & Cameron, [2012]).
For apical to basolateral (AP > BL) (basolateral to apical (BL > AP)) transport experiments, 1.5 mL of Hank’s Balanced Salt Solution (HBSS) loaded with DE, DE-SMs and DE-CMs (the concentration of DE in different groups was 200 μg/mL) was added to the AP side (BL side) and 2.6 mL of blank HBSS was added to the BL side (AP side), respectively. At fixed time intervals, 400 μL aliquots were taken from the BL side (AP side) with replacement of the fresh HBSS. The samples were frozen in a refrigerator at –80 °C until HPLC analysis. The HPLC method employed an ODS C18 column (250 × 4.6 mm, 5 μm, Dikma Technologies, China) and a methanol-water (75:25, v/v) mobile phase with a flow rate of 1.0 mL/min. The detection wavelength was 316 nm and the injection volume was 20 μL. The apparent permeability coefficient (Papp) and efflux ratio (ER) were calculated as follows: (5) Papp=dQ/dt/A×C0 where dQ/dt is the steady-state appearance rate of DE on the receiver side, C0 is the initial concentration of DE on the supply side, and A is the surface area of the cell monolayer. (6) ER=Papp(BL→AP)/Papp(AP→BL) where Papp(BL→AP) is the Papp value of DE transferred from the BL side to AP side, and Papp(AP→BL) is the Papp value of DE transferred from the AP side to BL side.

[2] = cited from earlier work
[3] = set-up: method as in Chai et al., 2016; conditions: 37 °C, ref Chai et al., 2016, cited from earlier work
[4] = Cytotoxicity by MTT assay; format: cell-based; conditions: human, Caco-2 cells, tested concentrations 0.05 μg/mL to 200 μg/mL, read-out: cell viability
Experimental: Cytotoxicity of DE, dabigatran etexilate-loaded single micelles (DE-SMs) and DE-CMs was investigated by the MTT assay (Zhai et al., [2013]). Caco-2 cells were supplied by KeyGEN BioTECH Co., Ltd. (Nanjing, China) and maintained in medium composite of DMEM (high glucose), 20% FBS and 1% penicillin/streptomycin solution. Cells were cultured at a density of 5 × 10^4 cells/well in 96-well plates and incubated at 37 °C under 5% CO2 for 24 h. Then, the complete medium was removed and cells were further incubated with 100 μL of complete medium containing DE, DE-SMs and DE-CMs at 37 °C for 24 h, respectively. Next, the medium was replaced with 20 μL of MTT (5 mg/mL) solution and 80 μL of fresh medium. Following 4 h of incubation, the medium containing MTT was discarded and 150 μL of DMSO was added to each well to dissolve the granular crystallization. The optical density of the samples was measured at 490 nm wavelength using a microplate ELISA analyzer (Thermo Scientific, USA) (Fan et al., [2017a]). The negative control was the group of Caco-2 cells without drugs. Cell viability was calculated as follows: (4) Cell viability (%)=(1−ODnegtive control−ODsample/ODnegtive control)×100% where ODnegative control is the optical density of the negative control group, and ODsample is the optical density of the experimental group.

efflux ratio at 200 μg/mL ([1]; Caco-2, Papp(BL→AP)/Papp(AP→BL), read-out: ER value (efflux ratio)): 14.2 | Papp A→B at 200 μg/mL ([1]; Caco-2 monolayer, DE 200 μg/mL, read-out: Papp (AP to BL)): 0.59 ± 0.055 ×10⁻⁶ cm/s | Papp B→A at 200 μg/mL ([1]; Caco-2 monolayer, DE 200 μg/mL, read-out: Papp (BL to AP)): 8.44 ± 0.072 ×10⁻⁶ cm/s
Compound: CCCCCCOC(=O)NC(=N)c1ccc(NCc2nc3cc(C(=O)N(CCC(=O)OCC)c4ccccn4)ccc3n2C)cc1 [DE, dabigatran etexilate]
absolute bioavailability ([2]; after oral administration, ref Greig & Mckeage, 2014): approximately 6.5% | oral bioavailability ([2]; ref Wang et al., 2013): 3–7% | solubility ([3]; SGF): 19245 µg/mL (≈ 30.7 mM) | solubility ([3]; SIF): 3.06 µg/mL (≈ 0.00487 mM) | viability at 24 h [4]: > 80%
